According to patent publication US20250333397A1 (REMIX THERAPEUTICS INC., priority 2021, published 2025):
Where two headings read alike, the source gives them in different places.

How the values were obtained:
Assay type in all cases: cell-based, human
HTT mRNA = assay: RT-qPCR splicing assay, HTT canonical (CJ) and alternative (AJ) junction mRNA; details: Homo sapiens; for AC50: read-out: HTT AJ (AC50, increase in AJ mRNA)
Outline: (§1)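 A673 (DMEM/10% FBS) or K562 (IMDM/10% FBS) cells treated 24 h at 37 °C with 11-point 3-fold dilutions, top 10 uM final, DMSO ≤0.25%. Lysates read by one-step RT-qPCR for CJ and AJ isoforms, normalized to GAPDH, GUSB or PPIA. ΔΔCt vs DMSO gives RQ via 2^(-ΔΔCt).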

MYB mRNA = assay: RT-qPCR splicing assay, MYB canonical (CJ) and alternative (AJ) junction mRNA; details: Homo sapiens; for AC50: read-out: MYB AJ (AC50, increase in AJ mRNA)
Outline: as §1

SMN2 mRNA = assay: RT-qPCR splicing assay panel, SMN2 canonical junction (CJ) mRNA; details: Homo sapiens
Outline: as §1

Target C mRNA = assay: RT-qPCR splicing assay panel, Target C canonical junction (CJ) mRNA; details: Homo sapiens
Outline: as §1

[1] = 24 h, Table 3A, A673 or K562 cells, 24 h treatment
[2] = 24 h, Table 3A, A673 or K562 cells, 24 h treatment, read-out: HTT CJ (IC50, decrease in CJ mRNA)
[3] = canonical junction (CJ) mRNA, RT-qPCR panel, Table 4A, read-out: HTT, decrease in CJ mRNA levels, IC50
[4] = 24 h, Table 3A, A673 or K562 cells, 24 h treatment, read-out: MYB CJ (IC50, decrease in CJ mRNA)
[5] = canonical junction (CJ) mRNA, RT-qPCR panel, Table 4A, read-out: MYB, decrease in CJ mRNA levels, IC50
[6] = canonical junction (CJ) mRNA, RT-qPCR panel, Table 4A, read-out: SMN2, decrease in CJ mRNA levels, IC50
[7] = canonical junction (CJ) mRNA, RT-qPCR panel, Table 4A, read-out: Target C, decrease in CJ mRNA levels, IC50
[8] = 24 h, Table 3B, A673 or K562 cells, 24 h treatment
[9] = 24 h, Table 3B, A673 or K562 cells, 24 h treatment, read-out: HTT CJ (IC50, decrease in CJ mRNA)
[10] = Table 4B, gene panel, read-out: HTT (IC50, decrease in CJ mRNA levels)
[11] = 24 h, Table 3B, A673 or K562 cells, 24 h treatment, read-out: MYB CJ (IC50, decrease in CJ mRNA)
[12] = Table 4B, gene panel, read-out: MYB (IC50, decrease in CJ mRNA levels)
[13] = Table 4B, gene panel, read-out: SMN2 (IC50, decrease in CJ mRNA levels)
[14] = Table 4B, gene panel, read-out: Target C (IC50, decrease in CJ mRNA levels)

Row | SMILES | AC50 (HTT mRNA; [1]) [µM] | IC50 (HTT mRNA; [2]) [µM] | IC50 (HTT mRNA; [3]) [µM] | AC50 (MYB mRNA; [1]) [µM] | IC50 (MYB mRNA; [4]) [µM] | IC50 (MYB mRNA; [5]) [µM] | IC50 (SMN2 mRNA; [6]) [µM] | IC50 (Target C mRNA; [7]) [µM] | AC50 (HTT mRNA; [8]) [µM] | IC50 (HTT mRNA; [9]) [µM] | IC50 (HTT mRNA; [10]) [µM] | AC50 (MYB mRNA; [8]) [µM] | IC50 (MYB mRNA; [11]) [µM] | IC50 (MYB mRNA; [12]) [µM] | IC50 (SMN2 mRNA; [13]) [µM] | IC50 (Target C mRNA; [14]) [µM]
1 | CCc1cc(-c2ccc(-c3ccc(N4CC[C@@H](NC5CCC5)C4)nn3)c(O)c2)cnn1 [Compound 277, 2-{6-[(3R)-3-(cyclobutylamino)pyrrolidin-1-yl]pyridazin-3-yl}-5-(6-ethylpyridazin-4-yl)phenol] | > 10 | 1 to 10 | 1 to 10 | > 10 | 1 to 10 | 1 to 10 | 1 to 10 | > 10 |  |  |  |  |  |  |  | 
2 | Oc1cc(-c2cn[nH]c2)c(F)cc1-c1ccc(N2CC[C@H](NC3CCC3)C2)nn1 [Compound 113, 2-{6-[(3S)-3-(cyclobutylamino)pyrrolidin-1-yl]pyridazin-3-yl}-4-fluoro-5-(1H-pyrazol-4-yl)phenol] | < 0.1 | < 0.1 | < 0.1 | < 0.1 | < 0.1 | < 0.1 | < 0.1 | < 0.1 |  |  |  |  |  |  |  | 
3 | Oc1cc(-c2cnc(C(F)F)s2)c(F)cc1-c1ccc(N2CCC(NC3CCC3)C2)nn1 (stereo not shown) [Compound 389] | 1 to 10 | 0.1 to 1 | 0.1 to 1 | 1 to 10 | 1 to 10 | 1 to 10 | 0.1 to 1 | 1 to 10 |  |  |  |  |  |  |  | 
4 | Cc1ncc(-c2cc(O)c(-c3ccc(N4CC[C@@H](CNC5CCC5)C4)nn3)cc2F)s1 [Compound 453] |  |  | < 0.1 |  |  | 1 to 10 | < 0.1 | 1 to 10 |  |  |  |  |  |  |  | 
5 | CC1(NC2CCN(c3ccc(-c4cc(F)c(-c5cn[nH]c5)cc4O)nn3)C2)CC1 (stereo not shown) [Compound 111, 4-fluoro-2-(6-{3-[(1-methylcyclopropyl)amino]pyrrolidin-1-yl}pyridazin-3-yl)-5-(1H-pyrazol-4-yl)phenol] | < 0.1 | < 0.1 | < 0.1 | < 0.1 | < 0.1 | < 0.1 | < 0.1 | < 0.1 |  |  |  |  |  |  |  | 
6 | Oc1cc(-c2cn[nH]c2)ccc1-c1ccc(N2CC[C@H](NC3CCC3)C2)nn1 [Compound 116, 2-{6-[(3S)-3-(cyclobutylamino)pyrrolidin-1-yl]pyridazin-3-yl}-5-(1H-pyrazol-4-yl)phenol] | < 0.1 | < 0.1 | < 0.1 | 0.1 to 1 | 0.1 to 1 | 0.1 to 1 | < 0.1 | < 0.1 |  |  |  |  |  |  |  | 
7 | COc1cc(-c2cc(O)c(-c3ccc(N4CC[C@H](NC(C)(C)C)C4)nn3)cc2F)ncn1 [Compound 397] | 0.1 to 1 | 0.1 to 1 | 0.1 to 1 | 1 to 10 | 0.1 to 1 | 0.1 to 1 | 0.1 to 1 | 0.1 to 1 |  |  |  |  |  |  |  | 
8 | COc1nc(-c2cnc(N3CCC(NC(C)(C)C)C3)nn2)ccc1-c1cnc(C)s1 (stereo not shown) [Compound 422] | < 0.1 | < 0.1 | < 0.1 | 0.1 to 1 | 0.1 to 1 | 0.1 to 1 | < 0.1 | 0.1 to 1 |  |  |  |  |  |  |  | 
9 | Cc1ccc(-c2ccc(-c3ccc(N4CC[C@H](NC5CCC5)C4)nn3)c(O)c2)cn1 [Compound 281] | 0.1 to 1 | 0.1 to 1 | 0.1 to 1 | 1 to 10 | 1 to 10 | 1 to 10 | < 0.1 | 1 to 10 |  |  |  |  |  |  |  | 
10 | Oc1cc(-c2cc(OC(F)(F)F)ncn2)ccc1-c1ccc(N2CCC(NCC3CC3)C2)nn1 (stereo not shown) [Compound 455] |  |  | > 10 |  |  | > 10 | > 10 | > 10 |  |  |  |  |  |  |  | 
11 | Cc1ncc(-c2cc(O)c(-c3ccc(N4CCC(NC5CCOC5)C4)nn3)cc2F)s1 (stereo not shown) [Compound 350, 4-fluoro-5-(2-methyl-1,3-thiazol-5-yl)-2-{6-[3-(oxolan-3-ylamino)pyrrolidin-1-yl]pyridazin-3-yl}phenol] | < 0.1 | < 0.1 | < 0.1 | 0.1 to 1 | < 0.1 | < 0.1 | < 0.1 | < 0.1 |  |  |  |  |  |  |  | 
12 | COc1cc(-c2ccc(-c3ccc(N4CC[C@@](C)(NCC5CC5)C4)nn3)c(O)c2)ncn1 [Compound 375, 2-{6-[(3R)-3-[(cyclopropylmethyl)amino]-3-methylpyrrolidin-1-yl]pyridazin-3-yl}-5-(6-methoxypyrimidin-4-yl)phenol] | 0.1 to 1 | < 0.1 | < 0.1 | 1 to 10 | 0.1 to 1 | 0.1 to 1 | < 0.1 | 0.1 to 1 |  |  |  |  |  |  |  | 
13 | Cc1nc2c(F)cc(-c3ccc(-c4ccc(N5CCC(NC6CCC6)C5)nn4)c(O)c3)cc2o1 (stereo not shown) [Compound 326] | 0.1 to 1 | < 0.1 | < 0.1 | 0.1 to 1 | 0.1 to 1 | 0.1 to 1 | < 0.1 | 0.1 to 1 |  |  |  |  |  |  |  | 
14 | Cc1cc(-c2ccc(-c3ccc(N4CC[C@H](NC5CCC5)C4)nn3)c(O)c2)cnn1 [Compound 291, 2-{6-[(3S)-3-(cyclobutylamino)pyrrolidin-1-yl]pyridazin-3-yl}-5-(6-methylpyridazin-4-yl)phenol] | > 10 | 1 to 10 | 1 to 10 | > 10 | > 10 | > 10 | 1 to 10 | > 10 |  |  |  |  |  |  |  | 
15 | COc1nc(-c2ccc(N3CCC(NC4CCC4)C3)nn2)ccc1-c1cnc(C)s1 (stereo not shown) [Compound 374] | 0.1 to 1 | 0.1 to 1 | 0.1 to 1 | 1 to 10 | 0.1 to 1 | 0.1 to 1 | < 0.1 | 0.1 to 1 |  |  |  |  |  |  |  | 
16 | Cc1nc2cc(O)c(-c3ccc(N4CCC(NC(C)(C)C(C)C)C4)nn3)cc2o1 (stereo not shown) [Compound 862] |  |  |  |  |  |  |  |  | 0.1 to 1 | 0.1 to 1 | 0.1 to 1 | 1 to 10 | 1 to 10 | 1 to 10 | 0.1 to 1 | 1 to 10
17 | Cn1cc2cc(-c3ccc(N4CCC(NC(C)(C)C)C4)nn3)c(O)cc2n1 (stereo not shown) [Compound 801] |  |  |  |  |  |  |  |  | 1 to 10 | 1 to 10 | 1 to 10 | 1 to 10 | 1 to 10 | 1 to 10 | 0.1 to 1 | 1 to 10
18 | CC(C)(C)N[C@@H]1CCN(c2ccc(-c3ccc(-c4cn[nH]c4)cc3O)nn2)C1 [Compound 262] | < 0.1 | < 0.1 | < 0.1 | < 0.1 | < 0.1 | < 0.1 | < 0.1 | < 0.1 |  |  |  |  |  |  |  | 
